In patent US8206756B2, “Herbal composition for inflammatory disorders” (Piramal Life Sciences Limited, priority 2005, dated 2012):

Experiments:
DSS-induced colitis = assay: DSS-induced murine model of acute colitis; format: in vivo, C57BL/6J mice; details: 15 mg/kg injected from day 5 onwards till death
[1] = tested on: atherosclerosis / hyperlipidemia; assay: Atherosclerosis model of high fat-fed hyperlipidemic hamsters; format: in vivo, Golden Syrian Hamsters; details: Fenofibrate 100 mpk, extract 200 mpk
Protocol: The treatment effects of the extract of example 1 on prevention of aortic lesion were determined by using atherosclerosis model of high fat-fed hyperlipidemic hamster.
Details of animals used: Male Golden Syrian Hamsters, which were 7-8 weeks old and weighed approximately 100 g to 120 g, were used for the experiment. Hamsters were randomly selected for treatment group placement. Animals were earmarked using a paint marker. Animals were separated and housed in groups of three in appropriately sized solid-bottom cages. Room lighting conditions were adjusted to 12 hour light and 12 hour dark cycle. During the acclimation period the diet was Purina 5001 (Research Diets, Inc. New Brunswick, N.J., USA). A high-fat diet consisting of Purina 5001 plus 10% coconut oil, 10% corn oil, 0.5% cholesterol, and 5% fructose was administered beginning on day 1 and continued throughout the duration of study. Hamsters were provided purified tap water throughout the study.
For pretreatment lipid values, animals were bled by retro-orbital puncture following an 18-hour fast and ˜1 ml of blood was collected in a 3 ml Vacutainer® tube containing K3 EDTA. Each blood sample was centrifuged (4000 rpm, 20 min, 4° C. using an Eppendorf C5804R) and the plasma separated and was analyzed for determination of triglyceride (TG), total cholesterol, high density cholesterol (HDL) and low density cholesterol (LDL).
Preparation of dosing solution: The extract of example 1 was dissolved in vehicle [CMC (0.5%)/Tween 80 (2%)] for 200 mpk (5 ml/kg BW) dosing. The resulting solution was a fine suspension after 12-15 minutes gentle sonication. Aliquots were prepared (˜2.3 ml/vial) and stored in a freezer and were used daily.
All groups of animals were dosed orally either with vehicle or with extract of example 1 (200 mpk) for 58 days. […]
On day 58, following the 16-18 hour fasting period, animals were bled by retro-orbital puncture and ˜1 ml of blood was collected in a 3 ml Vacutainer® tube containing K3 EDTA. Each blood sample was centrifuged (4000 rpm, 20 min, 4° C. using an Eppendorf C5804R) and the plasma sample was analyzed for TG, total cholesterol, HDL and LDL.
Necropsy: On day 59, the animals were fasted for 4 h and euthanized under carbon dioxide and plasma samples were collected via cardiac puncture for lipid profiling and other analyses. […] The heart, aortic arch, thoracic and abdominal aorta up to femoral bifurcation were removed and placed in 10% formalin for en face lesion quantification.
En face analysis: Connective fascia and adventia surrounding the thoracic aorta were removed as much as possible. […] Quantitation was performed using a Nikon SMZ-U microscope with an Optronics Camera head recording the photographs. […] Quantitation was done based on percentage lesion per area.

[2] = tested on: THP-1 cell adhesion to HUVECs; assay: Adhesion of THP-1 mononuclear cells to HUVEC monolayers; format: cell-based, human; details: for Fluorescence Intensity: TNF-α 1 ng/ml; for Fold of control: unstimulated DMSO control = 1, stimulated = 18
Protocol: Adhesion studies were performed with the promonocytic cell line THP-1, which has been established as a useful model for monocytes in adhesion studies in Circ. Res., 97, 236-243, 2005, with modifications. THP-1 cells were washed twice with labeling medium (M200 plus LSGS). THP-1 cells (6×10^5 cells per ml) were labeled with 10 μg/ml bis-carboxyethyl-carboxyfluorescein acetoxymethylester (a fluorescent probe, BCECF-AM; Sigma) for 30 min at RT. After quenching with 0.1% BSA, the pellet was resuspended in labeling medium. To evaluate monocyte adhesion, HUVEC monolayers treated with TNF-α (1 ng/ml) in the presence or absence of various concentrations of test sample. The media was removed, washed and labeled-THP-1-cells were added to the wells (6×10^4 cells per well) and incubated for 10 minutes at RT in the dark. After co incubation, the wells were washed, filled with lysis buffer (0.1% Triton-X in 1.5 M Tris buffer) and incubated for 30 min. The fluorescence was measured using a fluorescent reader (PolarStar Optima, BMG Labtech) at an excitation peak of 485 nm and an emission peak of 520 nm. Values are means±SEM, representing fluorescent adhesion data. BAY 11-7082 [(E)-3-(4-methylphenylsulfonyl)-2-propenenitrile] was used as a standard and DMSO as vehicle control.

TNF-α = assay: LPS-induced TNF-α production in hPBMCs (ELISA); format: cell-based; details: Homo sapiens, LPS 1 μg/ml, 5 h, hPBMC
Protocol: (§1) Primary screening—Human peripheral blood mononuclear cells (hPBMCs). TNF-α production by lipopolysaccharides (LPS) in hPBMCs was measured according to the method described by Jansky, L. et al (Physiol. Res. 52: 593-598, (2003)). Blood was collected from healthy donors into Potassium EDTA vacutainer tubes (BD vacutainer). The PBMCs were isolated using gradient centrifugation in Histopaque-1077 solution (Sigma). Isolated PBMCs were suspended in RPMI 1640 culture medium (Gibco BRL, Pasley, UK) containing 10% fetal bovine serum (FBS) (Hyclone, Utah, USA), 100 U/ml penicillin (Sigma Chemical Co. St Louis, Mo.) and 100 μg/ml streptomycin (Sigma Chemical Co. St Louis, Mo.). The cell concentration was adjusted to 1×10^6 cells/ml. The viability as determined by trypan blue dye exclusion was uniformly ≧98%. The cell suspension (100 μl) was added to the wells of a 96-well culture plate. Following cell plating, 79 μl of the culture medium and 1 μl of eight different concentrations of the test samples (final concentration 0.03, 0.1, 0.3, 1, 3, 10, 30, 100 μg/ml) dissolved in DMSO (dimethylsulfoxide, Sigma, Mo., USA) were added to the cells. The final concentration of DMSO was adjusted to 0.5%. The vehicle (0.5% DMSO) was used as control. Rolipram (100, 300 μM) was used as a standard. The plates were incubated for 30 min at 37° C. in an atmosphere of 5% CO2. Finally, 20 μl (10 μg/ml) per well of LPS, (Escherchia coli 0127:B8, Sigma Chemical Co., St. Louis, Mo.) was added, for a final concentration of 1 μg/ml. […] The % inhibition was recorded. Percent cytotoxicity of the test samples compared to control was evaluated.
The effect of the plant extract on the proinflammatory cytokines: TNF-α, interleukin-1β (IL-1β), interleukin-6 (IL-6) and interleukin-8 (IL-8) was measured using the supernatants generated in the primary screening assay. […]
The effect of the Compound 1, on the proinflammatory cytokines: TNF-α interleukin-1β (IL-1β), interleukin-6 (IL-6) and interleukin-8 (IL-8) was measured using the supernatants generated in the primary screening assay. […]

hPBMCs = assay: Cellular viability test (MTS) in hPBMCs; format: cell-based, human; details: hPBMC
Protocol: as §1, with “standard.” for “standard. The plates were incubated for 30 min at 37° C. in an atmosphere of 5% CO2. Finally, 20 μl (10 μg/ml) per well of LPS, (Escherchia coli 0127:B8, Sigma Chemical Co., St. Louis, Mo.) was added, for a final concentration of 1 μg/ml.”

Molecule: infliximab: Monoclonal antibody drug (Centocor), injected 15 mg/kg in the DSS colitis model
- Survival against DSS-induced colitic death (DSS-induced colitis): all animals in this group were dead

Molecule: CC(C)OC(=O)C(C)(C)Oc1ccc(C(=O)c2ccc(Cl)cc2)cc1 [Fenofibrate]
- Plasma triglycerides level, Mean ([1]; day 58, oral, vehicle mean 2321.3): 449.2
- Plasma triglycerides level, % Change ([1]; day 58, versus vehicle): −81%
- Atherosclerosis progression (percentage lesion per area, en face aorta), Mean ([1]; day 59, vehicle mean 0.5025): 0.0834
- Atherosclerosis progression, % Change ([1]; versus vehicle): −84%

Molecule: Cc1ccc(S(=O)(=O)/C=C/C#N)cc1 [BAY 11-7082, (E)-3-(4-methylphenylsulfonyl)-2-propenenitrile, reference compound]
- Fluorescence Intensity ([2]; 0.5 μM): 18442
- Fold of control ([2]; 0.5 μM): 10
- Fluorescence Intensity ([2]; 1 μM): 14271
- Fold of control ([2]; 1 μM): 8

Molecule: COc1ccc(C2CNC(=O)C2)cc1OC1CCCC1 (stereo not shown) [Rolipram]
- inhibition at 100 µM (TNF-α; 100 μM): 84%
- inhibition at 300 µM (TNF-α; 300 μM): 90%
- % Toxicity at 5 h (hPBMCs; 100 μM): 2%
- % Toxicity at 5 h (hPBMCs; 300 μM): 21%
